Test results: ChEMBL document CHEMBL1777804, “Part 3: Design and synthesis of proline-derived α2δ ligands” (Bioorg Med Chem Lett, 2011)

How the values were obtained:
Rattus norvegicus = species: Rattus norvegicus; experiment: Unbound clearance in rat urine; format: ADME, organism-based; settings: in vivo
[1] = Dissociation constant, pKa of the compound; format: physicochemical
[2] = Half life in rat; format: ADME, organism-based; settings: in vivo
[3] = Plasma protein binding in rat; format: ADME, cell-free; settings: read-out: PPB (converted)
[4] = Displacement of [3H]gabapentin from Voltage-dependent calcium channel subunit alpha-2/delta in pig cerebral cortex; format: tissue-based, Sus scrofa
[5] = Oral bioavailability in rat; format: ADME, organism-based; settings: in vivo
[6] = Clearance in dog at 0.5 mg/kg, po; format: ADME, organism-based, Canis lupus familiaris; design: dose 0.5 mg/kg, route oral; settings: in vivo
[7] = Ratio of drug level in CSF to plasma in rat; format: ADME
[8] = Lipophilicity, log D of the compound; format: physicochemical; settings: octanol/water
[9] = Half life in dog at 0.5 mg/kg, po; format: ADME, organism-based, Canis lupus familiaris; design: dose 0.5 mg/kg, route oral; settings: in vivo
[10] = Plasma protein binding in human; format: ADME, cell-free; settings: read-out: PPB (converted)
[11] = Inhibition of Voltage-dependent calcium channel subunit alpha-2/delta

Question: Which results are given for `O=C(O)[C@@H]1C[C@H](Oc2cccc(Cl)c2)CN1`?
Answer: CL (Rattus norvegicus): 41 mL/min/kg; pKa [1]: 8.9; half-life [2]: 0.4 h; fraction unbound [3]: 0.19; IC50 [4]: 4 nM; bioavailability [5]: 100%

Question: For `O=C(O)[C@@H]1C[C@H](COc2cccc(Cl)c2)CN1`, which IC50 [4] is on record?
Answer: The IC50 was 13 nM.

Question: With `Cl.O=C(O)[C@@H]1C[C@H](Cc2cccc(F)c2)CN1` as the compound, how does the CL (Rattus norvegicus) read?
Answer: Its CL is 6 mL/min/kg.

Question: What about the pKa [1] of the same compound?
Answer: The pKa was 10.1.

Question: And the half-life [2]?
Answer: The half-life was 1.6 h.

Question: What about the CL/F [6] of the same compound?
Answer: The CL/F was 0.4 mL/min/kg.

Question: What about the Kp [7] of the same compound?
Answer: Its Kp is 0.004.

Question: And the logD [8]?
Answer: Its logD is 0.1.

Question: And the half-life [9]?
Answer: Its half-life is 26 h.

Question: What about the fraction unbound [3] of the same compound?
Answer: The fraction unbound was 0.82.

Question: What about the fraction unbound [10] of the same compound?
Answer: Its fraction unbound is 0.73.

Question: What about the IC50 [4] of the same compound?
Answer: The IC50 was 17 nM.

Question: And the bioavailability [5]?
Answer: Its bioavailability is 89%.

Question: What does the source list for `O=C(O)[C@@H]1C[C@H](OCc2ccc(Cl)cc2)CN1`?
Answer: CL (Rattus norvegicus): 26 mL/min/kg; fraction unbound [3]: 0.65; IC50 [4]: 48 nM

Question: For `O=C(O)[C@@H]1C[C@H](Cc2ccccc2F)CN1`, which IC50 [4] is on record?
Answer: Its IC50 is 108 nM.

Question: What does the source list for `O=C(O)[C@@H]1C[C@H](COc2cccc(F)c2)CN1`?
Answer: CL (Rattus norvegicus): 7 mL/min/kg; half-life [2]: 1.4 h; logD [8]: -0.3; fraction unbound [3]: 0.91; fraction unbound [10]: 0.32; IC50 [4]: 25 nM

Question: Which CL (Rattus norvegicus) does the source give for `O=C(O)[C@@H]1C[C@H](Cc2ccccc2Cl)CN1` here?
Answer: Its CL is 15 mL/min/kg.

Question: What about the half-life [2] of the same compound?
Answer: The half-life was 0.5 h.

Question: And the logD [8]?
Answer: The logD was 0.6.

Question: What about the fraction unbound [3] of the same compound?
Answer: Its fraction unbound is 0.67.

Question: And the IC50 [4]?
Answer: Its IC50 is 8 nM.

Question: Which IC50 [4] does the source give for `O=C(O)[C@@H]1C[C@H](Cc2cc(Cl)ccc2Cl)CN1` here?
Answer: The IC50 was 5 nM.

Question: Which IC50 [4] does the source give for `O=C(O)[C@@H]1C[C@H](Cc2cccc(OC(F)(F)F)c2)CN1` here?
Answer: The IC50 was 4 nM.

Question: Which IC50 [4] does the source give for `CCc1cccc(C[C@@H]2CN[C@H](C(=O)O)C2)c1` here?
Answer: The IC50 was 27 nM.

Question: For `O=C(O)[C@@H]1C[C@H](Cc2cccc(F)c2F)CN1`, which IC50 [4] is on record?
Answer: The IC50 was 27 nM.

Question: For `COc1cccc(C[C@@H]2CN[C@H](C(=O)O)C2)c1`, which IC50 [4] is on record?
Answer: The IC50 was 28 nM.

Question: With `O=C(O)[C@@H]1C[C@H](Cc2cc(F)ccc2F)CN1` as the compound, how does the IC50 [4] read?
Answer: Its IC50 is 10 nM.

Question: With `O=C(O)[C@@H]1C[C@H](Cc2ccccc2)CN1` as the compound, how does the IC50 [4] read?
Answer: The IC50 was 272 nM.

Question: Which IC50 [4] does the source give for `O=C(O)[C@H]1C[C@@H](Cc2cccc(F)c2)CN1` here?
Answer: The IC50 was over 10000 nM.

Question: For `NCC1(CC(=O)O)CCCCC1` [GABAPENTIN], which IC50 [11] is on record?
Answer: Its IC50 is 140 nM.

Question: Which IC50 [11] does the source give for `CC(C)C[C@H](CN)CC(=O)O` [PREGABALIN] here?
Answer: Its IC50 is 80 nM.
